Reference: patent US8518952B2, “6 substituted 2-heterocyclylamino pyrazine compounds as CHK-1 inhibitors” (Pfizer Inc., priority 2008, dated 2013)

Legend:
CHK1 (kinase domain) = biological target: T1, CHK1 (kinase domain) (Homo sapiens, UniProt O14757); assay: CHK1 Ki determination, spectrophotometric coupled (pyruvate kinase/lactate dehydrogenase) assay; assay type: biochemical; conditions: CHK-1 kinase domain; for Ki: 150 uM ATP, 125 uM Syntide 2
T1 construct: a solution containing 1 nM of CHK1 (kinase domain)
T1 sequence (O14757 9-265 limits assumed): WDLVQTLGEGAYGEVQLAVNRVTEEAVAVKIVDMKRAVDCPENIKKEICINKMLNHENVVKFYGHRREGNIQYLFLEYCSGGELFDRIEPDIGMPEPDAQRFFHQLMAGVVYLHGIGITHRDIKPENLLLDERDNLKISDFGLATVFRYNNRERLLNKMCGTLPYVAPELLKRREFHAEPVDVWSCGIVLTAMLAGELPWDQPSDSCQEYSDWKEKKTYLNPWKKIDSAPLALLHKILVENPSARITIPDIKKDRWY
Summary of the method: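 The CHK1 kinase domain was pre-incubated with compound for 15 min, and the reaction was started with 125 uM Syntide 2 and 150 uM ATP. ADP formation was coupled through pyruvate kinase/lactate dehydrogenase to NADH oxidation, read as the A340 decrease. Kiapp was fitted with a tight-binding equation that accounts for enzyme concentration and ATP Km; some entries are % inhibition.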

Mia Paca-2 cells = assay: Histone H3 (Ser10) phosphorylation ELISA, abrogation of camptothecin-induced G2 arrest (CHK-1 cellular assay); assay type: cell-based; conditions: Homo sapiens, camptothecin 8 hrs, then compound with nocodozole 16 hours
Experimental: The Histone H3 phosphorylation ELISA assay detects cells entering mitosis and represents the primary in vitro cell-based assay used to measure the cellular potency of compounds in abrogating the G2 check point induced by DNA damage in HeLa cells or MiaPaCa cells. The candidate substances were assayed for potency in their ability to inhibit camptothecin-induced G2 arrest, as measured by an increase in Histone H3 phosphorylation on Ser10, a marker of entry into mitosis.
The PathScan Phospho-Histone H3 (Ser10) Sandwich ELISA kit was used (Cell Signaling, #7155) and the assay was performed according to manufacturer recommendations. Tissue culture plates were seeded with HeLa cells or MiaPaCa Cells and allowed to attach overnight. The cells were then treated with camptothecin to induce DNA damage for 8 hrs. Candidate substances or diluent were then added in the presence of nocodozole for 16 hours. Cells were then lysed with buffer from Assay Designs (#80-1114) supplemented with protease inhibitors and frozen overnight. The fresh whole cell lysates were then thawed and added to the ELISA plate with shaking for 3 hours. Between all subsequent steps plates were washed 4 times with PBST. Biotinylated phospho Histone H3 (ser10) detection antibody was added for 1 hour, followed by addition of horseradish peroxidase-linked streptavidin secondary antibody for 1 hour. Color development of the antibody was performed with addition of TMB substrate and incubation for 2 minutes on a plate shaker. Stop solution was added and plates were read with absorbance at 450 nm on a spectrophotometer. EC50 values were calculated by sigmoid curve fitting using a four-parameter analysis.
Under the “Ki” column, data entries in the format of “%” are percent inhibition data where no Ki data is available. Data entry under the “EC50” column with an * are data obtained using Mia Paca-2 cells rather than HeLa cells. Data is not available where noted as n/a.

[1] = Mia Paca-2 cells (entries marked *)
[2] = MIA PaCa-2, Mia Paca-2 cells (entries marked *)

Row | Ki (CHK1 (kinase domain)) [nM] | EC50 (Mia Paca-2 cells; [1]) [nM] | EC50 (Mia Paca-2 cells; [2]) [nM] | percent inhibition (where no Ki data is available) (CHK1 (kinase domain); inhibitor concentration not given) [%^] | SMILES
1 | 1 | 7.27 |  |  | COc1ccc2c(-c3cncc(N[C@@H]4CCCNC4)n3)cnn2c1 [Example 33, 6-(6-methoxypyrazolo[1,5-a]pyridin-3-yl)-N-[(3R)-piperidin-3-yl]pyrazin-2-amine]
2 | 2.03 |  | 21 |  | COc1ccn2c(-c3cncc(N[C@@H]4CCCNC4)n3)cnc2c1 [Example 37, 6-(7-Methoxyimidazo[1,2-a]pyridin-3-yl)-N-[(3R)-piperidin-3-yl]pyrazin-2-amine]
3 | 1.68 |  | 295 |  | NC(=O)c1ccn2c(-c3cncc(N[C@@H]4CCCNC4)n3)cnc2c1 [Example 86, 3-{6-[(3R)-piperidin-3-ylamino]pyrazin-2-yl}imidazo[1,2-a]pyridine-7-carboxamide]
4 | 8.63 |  | 127 |  | Fc1ccc2ncc(-c3cncc(N[C@@H]4CCCNC4)n3)n2c1 [Example 87, 6-(6-fluoroimidazo[1,2-a]pyridin-3-yl)-N-[(3R)-piperidin-3-yl]pyrazin-2-amine]
5 | 17.3 | 589 |  |  | CC(C)c1cn2c(-c3cncc(N[C@@H]4CC[C@@H](C)NC4)n3)cnc2s1 [Example 110, 6-(2-isopropylimidazo[2,1-b][1,3]thiazol-5-yl)-N-[(3R,6R)-6-methylpiperidin-3-yl]pyrazin-2-amine]
6 | 34.3 | 686 |  |  | Cc1nn2c(-c3cncc(N[C@@H]4CCCNC4)n3)cnc2s1 [Example 120, 6-(2-methylimidazo[2,1-b][1,3,4]thiadiazol-5-yl)-N-[(3R)-piperidin-3-yl]pyrazin-2-amine]
7 | 0.929 | 10.8 |  |  | C[C@@H]1CNC[C@@H]1Nc1cncc(-c2cnc3cc(Cl)ccn23)n1 [Example 129, 6-(7-chloroimidazo[1,2-a]pyridin-3-yl)-N-[(3R,4R)-4-methylpyrrolidin-3-yl]pyrazin-2-amine]
8 | 4.86 | 139 |  |  | FC[C@@H]1CNC[C@@H]1Nc1cncc(-c2cnc3ccccn23)n1 [Example 130, N-[(3R,4R)-4-(fluoromethyl)pyrrolidin-3-yl]-6-imidazo[1,2-a]pyridin-3-ylpyrazin-2-amine]
9 | 12.6 | 208 |  |  | Cc1cn2c(-c3cncc(N[C@@H]4CCCNC4)n3)cnc2cn1 [Example 135, 6-(6-methylimidazo[1,2-a]pyrazin-3-yl)-N-[(3R)-piperidin-3-yl]pyrazin-2-amine]
10 | 2.4 |  | 256 |  | Oc1ccn2c(-c3cncc(N[C@@H]4CCCNC4)n3)cnc2c1 [Example 137, 3-{6-[(3R)-piperidin-3-ylamino]pyrazin-2-yl}imidazo[1,2-a]pyridin-7-ol]
11 | 1.49 | 125 |  |  | COc1ccc2ncn(-c3cncc(N[C@@H]4CCCNC4)n3)c2c1 [Example 142, 6-(6-methoxy-1H-benzimidazol-1-yl)-N-[(3R)-piperidin-3-yl]pyrazin-2-amine]
12 | 3.18 | 167 |  |  | C[C@@H]1C[C@@H](Nc2cncc(-c3cnc4ccccn34)n2)CN1 [Example 144, 6-imidazo[1,2-a]pyridin-3-yl-N-[(3R,5R)-5-methylpyrrolidin-3-yl]pyrazin-2-amine]
13 | 3.9 | 602 |  |  | CC1(COc2ccn3c(-c4cncc(N[C@@H]5CCNC5)n4)cnc3c2)COC1 [Example 154, 6-{7-[(3-methyloxetan-3-yl)methoxy]imidazo[1,2-a]pyridin-3-yl}-N-[(3R)-pyrrolidin-3-yl]pyrazin-2-amine]
14 | 1 | 46.1 |  |  | CC1(COc2ccn3c(-c4cncc(N[C@@H]5CCCNC5)n4)cnc3c2)COC1 [Example 155, 6-{7-[(3-methyloxetan-3-yl)methoxy]imidazo[1,2-a]pyridin-3-yl}-N-[(3R)-piperidin-3-yl]pyrazin-2-amine]
15 | 21.7 | 73.3 |  |  | COC[C@@H]1C[C@@H](Nc2cncc(-c3cnc4ccccn34)n2)CN1 [Example 157, 6-(imidazo[1,2-a]pyridin-3-yl)-N-[(3R,5S)-5-(methoxymethyl)pyrrolidin-3-yl]pyrazin-2-amine]
16 | 49.8 | 129 |  |  | CC(C)OC[C@@H]1C[C@@H](Nc2cncc(-c3cnc4ccccn34)n2)CN1 [Example 158, 6-(imidazo[1,2-a]pyridin-3-yl)-N-{(3R,5S)-5-[(propan-2-yloxy)methyl]pyrrolidin-3-yl}pyrazin-2-amine]
17 | 1.07 | 25.7 |  |  | CC(C)c1cn2c(-c3cncc(N[C@@H]4CCCNC4)n3)cnc2s1 [Example 160, N-[(3R)-piperidin-3-yl]-6-[2-(propan-2-yl)imidazo[2,1-b][1,3]thiazol-5-yl]pyrazin-2-amine]
18 | 1.47 | 5.66 |  |  | Cc1cn2c(-c3cncc(N[C@@H]4CCCN[C@@H]4C)n3)cnc2s1 [Example 161, 6-(2-methylimidazo[2,1-b][1,3]thiazol-5-yl)-N-[(2R,3R)-2-methylpiperidin-3-yl]pyrazin-2-amine]
19 | 14 | 248 |  |  | C[C@H]1NCCC[C@H]1Nc1cncc(-c2cnc3cnccn23)n1 [Example 163, 6-(imidazo[1,2-a]pyrazin-3-yl)-N-[(2R,3R)-2-methylpiperidin-3-yl]pyrazin-2-amine]
20 | 7.2 | 26.1 |  |  | C[C@@H]1CNC[C@@H]1Nc1cncc(-c2cnc3sccn23)n1 [Example 181, 6-(imidazo[2,1-b][1,3]thiazol-5-yl)-N-[(3R,4R)-4-methylpyrrolidin-3-yl]pyrazin-2-amine]
21 | 57.8 | 663 |  |  | COC[C@@H]1C[C@@H](Nc2cncc(-c3cnc4cc(C#N)ccn34)n2)CN1 [Example 188, 3-(6-{[(3R,5S)-5-(methoxymethyl)pyrrolidin-3-yl]amino}pyrazin-2-yl)imidazo[1,2-a]pyridine-7-carbonitrile]
22 | 17.9 | 626 |  |  | C[C@@H]1C[C@@H](Nc2cncc(-c3cnc4cc(C#N)ccn34)n2)CN1 [Example 189, 3-(6-{[(3R,5R)-5-methylpyrrolidin-3-yl]amino}pyrazin-2-yl)imidazo[1,2-a]pyridine-7-carbonitrile]
23 | 29.2 | 187 |  |  | CCCOC[C@@H]1C[C@@H](Nc2cncc(-c3cnc4ccccn34)n2)CN1 [Example 192, 6-(imidazo[1,2-a]pyridin-3-yl)-N-[(3R,5S)-5-(propoxymethyl)pyrrolidin-3-yl]pyrazin-2-amine]
24 | 3.05 | 4.82 |  |  | c1ccn2c(-c3cncc(N[C@H]4CNC[C@H]4C4CC4)n3)cnc2c1 [Example 197, N-[(3R,4R)-4-cyclopropylpyrrolidin-3-yl]-6-(imidazo[1,2-a]pyridin-3-yl)pyrazin-2-amine]
25 | 7.82 | 106 |  |  | Fc1cccn2ncc(-c3cncc(N[C@@H]4CCCNC4)n3)c12 [Example 199, 6-(4-fluoropyrazolo[1,5-a]pyridin-3-yl)-N-[(3R)-piperidin-3-yl]pyrazin-2-amine]
26 |  | 127 |  | 26.1 | C[C@@H]1CNC[C@@H]1Nc1cncc(-c2cnn3cccc(F)c23)n1 [Example 200, 6-(4-fluoropyrazolo[1,5-a]pyridin-3-yl)-N-[(3R,4R)-4-methylpyrrolidin-3-yl]pyrazin-2-amine]
27 | 4.09 |  | 134 |  | O[C@H]1CNC[C@H](Nc2cncc(-c3cnc4ccccn34)n2)C1 [Example 203, (3R,5R)-5-{[6-(imidazo[1,2-a]pyridin-3-yl)pyrazin-2-yl]amino}piperidin-3-ol]
28 | 54.5 |  | 74.9 |  | C[C@@H]1CCNC[C@@H]1Nc1cncc(-c2cnc3ccccn23)n1 [Example 204, 6-(imidazo[1,2-a]pyridin-3-yl)-N-[(3R,4R)-4-methylpiperidin-3-yl]pyrazin-2-amine]
29 | 38.3 |  | 55.2 |  | C[C@@H]1CCNC[C@@H]1Nc1cncc(-c2cnc3cc(Cl)ccn23)n1 [Example 205, 6-(7-chloroimidazo[1,2-a]pyridin-3-yl)-N-[(3R,4R)-4-methylpiperidin-3-yl]pyrazin-2-amine]

Row | SMILES | Ki (CHK1 (kinase domain)) [nM] | EC50 (Mia Paca-2 cells; [1]) [nM] | EC50 (Mia Paca-2 cells; [2]) [nM] | percent inhibition (where no Ki data is available) (CHK1 (kinase domain); inhibitor concentration not given) [%^]
30 | c1ccn2c(-c3cncc(N[C@@H]4C[C@@H]5CN[C@H]4C5)n3)cnc2c1 [Example 123, (1S,4R,6R)-N-(6-imidazo[1,2-a]pyridin-3-ylpyrazin-2-yl)-2-azabicyclo[2.2.1]heptan-6-amine] | 3.22 | 22.9 |  | 
